Source: ChEMBL document CHEMBL4376882, “Photodynamic Therapy for ras-Driven Cancers: Targeting G-Quadruplex RNA Structures with Bifunctional Alkyl-Modified Porphyrins” (J Med Chem, 2020)
Active and inactive are the calls of the source. No cut-off for these calls is given here.

How the values were obtained:
[1] = Induction of ROS-mediated Cys5.5 labelled utr-c RNA duplex (unknown origin) degradation at 0.6 uM incubated for 30 mins followed by photoirradiation for 15 to 30 mins by PAGE analysis
PANC-1 [2] = assay: Induction of apoptosis in human PANC1 cells assessed as early apoptotic cells at 15 nM and photoirradiated at 7.2 J/cm2 measured after 6 to 24 hrs in presence of NAC by annexin-V-propidium iodide staining based FACScalibur flow cytometry analysis (reference value: 3.1 %); type: functional
PANC-1 [3] = assay: (§1) Induction of ROS generation in human PANC1 cells assessed as cleavage of CM-H2DCFDA to CM-H2DCF by intracellular esterase by measuring green fluorescence emission incubated for 16 hrs followed by 7.2J/cm2 photoirradiation and subsequent compound washout measured after 40 mins by CM-H2DCFDA staining-based FACSCalibur flow cytometry; type: functional, cell-based
PANC-1 [4] = assay: Cytotoxicity against human PANC1 cells assessed as reduction in metabolic activity at 20 nM after 24 to 72 hrs in dark followed by photoirradiation in presence of NADH and NAC by resazurin assay; type: functional, cell-based
PANC-1 [5] = assay: Induction of apoptosis in human PANC1 cells assessed as early apoptotic cells at 5 nM and photoirradiated at 7.2 J/cm2 measured after 6 to 24 hrs by annexin-V-propidium iodide staining based FACScalibur flow cytometry analysis (reference value: 4.6 %); type: functional
Quadruplex DNA [6] = assay: Induction of ROS-mediated […] labeled Ras RNA g-quadruplex (unknown origin) degradation assessed as residual RNA g-quadruplex at 0.6 uM incubated for 15 to 30 mins followed by photoirradiation for 30 mins by PAGE analysis relative to control; type: nucleic-acid assay
PANC-1 [7] = assay: Induction of apoptosis in human PANC1 cells assessed as late apoptotic cells at 15 nM and photoirradiated at 7.2 J/cm2 measured after 6 to 24 hrs by annexin-V-propidium iodide staining based FACScalibur flow cytometry analysis (reference value: 2.7 %); type: functional
PANC-1 [8] = assay: Induction of apoptosis in human PANC1 cells assessed as early apoptotic cells at 15 nM and photoirradiated at 7.2 J/cm2 measured after 6 to 24 hrs by annexin-V-propidium iodide staining based FACScalibur flow cytometry analysis (reference value: 4.6 %); type: functional
[9] = biological target: GTPase NRas (Homo sapiens) (UniProt P01111); assay: Inhibition of NRAS in human PANC1 cells assessed as downregulation of NRAS expression at 15 nM followed by 7.2 J/cm2 irradiation after 4 hrs by Western blot analysis (reference value: 25 %); type: cell-based
Chain of GTPase NRas (Homo sapiens) (P01111 whole entry): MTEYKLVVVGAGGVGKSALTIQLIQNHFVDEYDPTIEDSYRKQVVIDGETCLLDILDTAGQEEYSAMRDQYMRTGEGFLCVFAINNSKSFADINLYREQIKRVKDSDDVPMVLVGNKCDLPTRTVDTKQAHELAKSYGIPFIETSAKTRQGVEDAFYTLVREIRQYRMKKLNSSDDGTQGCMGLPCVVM

PANC-1 [10] = assay: Induction of apoptosis in human PANC1 cells assessed as necrotic cells at 10 nM and photoirradiated at 7.2 J/cm2 measured after 6 to 24 hrs by annexin-V-propidium iodide staining based FACScalibur flow cytometry analysis (reference value: 0.7 %); type: functional
PANC-1 [11] = assay: Induction of apoptosis in human PANC1 cells assessed as viable cells at 15 nM and photoirradiated at 7.2 J/cm2 measured after 6 to 24 hrs in presence of NAC by annexin-V-propidium iodide staining based FACScalibur flow cytometry analysis (reference value: 94.5 %); type: functional; settings: PANC-1, light or radiation study, read-out: Activity
Quadruplex DNA [12] = assay: Binding affinity to human KRAS utr-c RNA g-quadruplex by fluorescence spectroscopy; type: nucleic-acid assay
[13] = Induction of ROS-mediated […] labelled 20-mer utr-z stem-loop RNA (unknown origin) degradation at 0.6 uM incubated for 30 mins followed by photoirradiation for 15 to 30 mins by PAGE analysis
[14] = Induction of ROS-mediated […] labelled 20-mer utr-c stem-loop RNA (unknown origin) degradation at 0.6 uM incubated for 30 mins followed by photoirradiation for 15 to 30 mins by PAGE analysis
PANC-1 [15] = assay: Induction of apoptosis in human PANC1 cells assessed as viable cells at 15 nM and photoirradiated at 7.2 J/cm2 measured after 6 to 24 hrs by annexin-V-propidium iodide staining based FACScalibur flow cytometry analysis (reference value: 91.9 %); type: functional; settings: PANC-1, light or radiation study, read-out: Activity
PANC-1 [16] = assay: Photodynamic antitumor activity against human PANC1 cells xenografted in SCID mouse assessed as reduction in tumor growth at 3 mg/kg administered intratumorally after 2 hrs photoirradiated by diode laser at 193 J/cm2 by micrometer caliper method; type: functional, organism-based
[17] = Binding affinity to NRAS RNA g-quadruplex (unknown origin) at 40 degree C by SPR analysis; type: nucleic-acid assay
[18] = Drug uptake in human PANC1 cells in presence of dynamin-inhibitor dynasore; type: ADME, cell-based; settings: panc-1
[19] = biological target: GTPase KRas (Homo sapiens) (UniProt P01116); assay: Inhibition of KRAS in human PANC1 cells assessed as downregulation of KRAS expression at 15 nM followed by 7.2 J/cm2 irradiation after 4 hrs by Western blot analysis (reference value: 5 %); type: cell-based
Chain of GTPase KRas (Homo sapiens) (P01116 whole entry, looked up): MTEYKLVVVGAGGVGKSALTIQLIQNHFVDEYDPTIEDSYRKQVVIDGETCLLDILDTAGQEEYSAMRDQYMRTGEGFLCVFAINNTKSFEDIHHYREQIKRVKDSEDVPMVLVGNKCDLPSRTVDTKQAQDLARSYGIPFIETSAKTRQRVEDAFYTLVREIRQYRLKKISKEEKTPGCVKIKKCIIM

PANC-1 [20] = assay: Induction of apoptosis in human PANC1 cells assessed as necrotic cells at 5 nM and photoirradiated at 7.2 J/cm2 measured after 6 to 24 hrs by annexin-V-propidium iodide staining based FACScalibur flow cytometry analysis (reference value: 0.7 %); type: functional
PANC-1 [21] = assay: Induction of apoptosis in human PANC1 cells assessed as late apoptotic cells at 10 nM and photoirradiated at 7.2 J/cm2 measured after 6 to 24 hrs by annexin-V-propidium iodide staining based FACScalibur flow cytometry analysis (reference value: 2.7 %); type: functional
PANC-1 [22] = assay: Cytotoxicity against human PANC1 cells assessed as reduction in metabolic activity at 20 nM after 24 to 72 hrs in dark followed by photoirradiation in presence of NADH by resazurin assay; type: functional, cell-based
Quadruplex DNA [23] = assay: Induction of ROS-mediated […] labeled Ras RNA g-quadruplex (unknown origin) degradation assessed as increase in residual RNA g-quadruplex at 0.6 uM incubated for 30 mins in presence of NAC followed by photoirradiation for 15 to 30 mins by PAGE analysis relative to control; type: nucleic-acid assay
PANC-1 [24] = assay: Induction of apoptosis in human PANC1 cells assessed as necrotic cells at 10 nM and photoirradiated at 7.2 J/cm2 measured after 6 to 24 hrs in presence of NAC by annexin-V-propidium iodide staining based FACScalibur flow cytometry analysis (reference value: 1 %); type: functional
[25] = Drug uptake in mouse NIH/3T3 cells at 5 uM and 4 degree C after 16 hrs by FACS analysis relative to 37 degree C; type: ADME, cell-based; settings: nih3t3, 16 h
Quadruplex DNA [26] = assay: Binding affinity to human KRAS utr-z RNA g-quadruplex assessed as induction of hypochromicity at 1.6 uM by UV-vis spectrophotometry relative to control; type: nucleic-acid assay
PANC-1 [27] = assay: Induction of apoptosis in human PANC1 cells assessed as early apoptotic cells at 10 nM and photoirradiated at 7.2 J/cm2 measured after 6 to 24 hrs by annexin-V-propidium iodide staining based FACScalibur flow cytometry analysis (reference value: 4.6 %); type: functional
PANC-1 [28] = assay: as §1, with “cells” for “cells assessed as”, “hrs in presence of NAC” for “hrs”; type: functional, cell-based
[29] = biological target: GTPase KRas (Homo sapiens) (UniProt P01116); assay: Inhibition of KRAS in human PANC1 cells assessed as decrease in KRAS mRNA level at 15 nM followed by 7.2 J/cm2 irradiation after 4 hrs by qRT-PCR analysis; type: cell-based

## CCCCCCCCCCCCCC[n+]1ccc(-c2c3nc(c(-c4cc[n+](C)cc4)c4ccc([nH]4)c(-c4cc[n+](C)cc4)c4nc(c(-c5cc[n+](C)cc5)c5ccc2[nH]5)C=C4)C=C3)cc1.[I-].[I-].[I-].[I-]
[1]
  Activity: inactive
PANC-1 [2]
  Activity: 3.9%
PANC-1 [3]
  Activity: Dose-dependent effect
PANC-1 [4]
  Activity: inactive
PANC-1 [5]
  Activity: 5.1%
Quadruplex DNA [6]
  Activity: 30%
PANC-1 [7]
  Activity: 20.8%
PANC-1 [8]
  Activity: 4.5%
[9]
  inhibition: 50%
PANC-1 [10]
  Activity: 2.2%
PANC-1 [11]
  viability at 0.015 µM: 89.4%
Quadruplex DNA [12]
  Kd: 0.235 µM
[13]
  Activity: inactive
[14]
  Activity: inactive
PANC-1 [15]
  viability at 0.015 µM: 70.6%
PANC-1 [16]
  Activity: Active
[17]
  Kd: 0.056 to 0.098 µM
[18]
  Drug uptake: Not Active
[19]
  inhibition: 20%
PANC-1 [20]
  Activity: 0.6%
PANC-1 [21]
  Activity: 10.9%
PANC-1 [22]
  Activity: Active
Quadruplex DNA [23]
  Activity: 50%
PANC-1 [24]
  Activity: 2.3%
[25]
  Drug uptake: Active
Quadruplex DNA [26]
  Activity: 50%
PANC-1 [27]
  Activity: 4.8%
PANC-1 [28]
  Activity: inactive
[29]
  inhibition: Active
